Measured values as given in patent publication US11458123B2 (Arvinas, Inc., priority 2016, dated 2022).

What follows are compounds tested on tau protein (assay: Tau protein in vitro degradation assay (Western blot, Tau-13 antibody)). Settings: SK-N-SH cells; 72 hours of incubation; tested at 300 nM, 100 nM, 33 nM and 11 nM; Western blot, Tau-13 antibody.
Type: cell-based, human
Procedure, shortened: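 Tau degradation read by Tau-13 Western blot (detects all human tau forms) of SDS-PAGE-resolved lysates from SK-N-SH cells. Cells were plated at least 18 h before 72 h exposure to PROTACs at either 1000/300/100 nM or 300/100/33/11 nM.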
With `Cn1c2ccncc2c2ccc(-c3cnc(OCCOCCOCCOCCOCCOc4ccc5c(c4)C(=O)N(C4CCC(=O)NC4=O)C5=O)cc3Cl)cc21` (stereo not shown) [Compound 113, 5-((14-((4-chloro-5-(5-methyl-5H-pyrido[4,3-b]indol-7-yl)pyridin-2-yl)oxy)-3,6,9,12-tetraoxatetradecyl)oxy)-2-(2,6-dioxopiperidin-3-yl)isoindoline-1,3-dione] the “Degradation activity* (highest amount of degradation observed at any dosage; tau protein remaining)” value was “C (>80% tau protein remaining after 72 hours of incubation with the test compound)”.
With `Cn1c2ccncc2c2ccc(-c3ccc(O[C@H]4C[C@H](OCCCCOCCCCCOc5ccc6c(c5)C(=O)N(C5CCC(=O)NC5=O)C6=O)C4)nc3)cc21` (stereo partly shown) [Compound 114, 2-(2,6-dioxopiperidin-3-yl)-5-((5-(4-((1r,3r)-3-((5-(5-methyl-5H-pyrido[4,3-b]indol-7-yl)pyridin-2-yl)oxy)cyclobutoxy)butoxy)pentyl)oxy)isoindoline-1,3-dione] the “Degradation activity* (highest amount of degradation observed at any dosage; tau protein remaining)” value was “C (>80% tau protein remaining after 72 hours of incubation with the test compound)”.
For `Cn1c2ccncc2c2ccc(-c3ccc(N4CC(OCCCCCOCCCCCOc5ccc6c(c5)C(=O)N(C5CCC(=O)NC5=O)C6=O)C4)nc3)cc21` (stereo not shown) [Compound 115, 2-(2,6-dioxopiperidin-3-yl)-5-((5-((5-((1-(5-(5-methyl-5H-pyrido[4,3-b]indol-7-yl)pyridin-2-yl)azetidin-3-yl)oxy)pentyl)oxy)pentyl)oxy)isoindoline-1,3-dione], the “Degradation activity* (highest amount of degradation observed at any dosage; tau protein remaining)” value was “C (>80% tau protein remaining after 72 hours of incubation with the test compound)”.
`Cn1c2ccncc2c2ccc(-c3ccc(OCCCCOCCCCN4CC5(CC(Oc6ccc7c(c6)C(=O)N(C6CCC(=O)NC6=O)C7=O)C5)C4)nc3)cc21` (stereo not shown) [Compound 116, 2-(2,6-dioxopiperidin-3-yl)-5-((2-(4-(4-((5-(5-methyl-5H-pyrido[4,3-b]indol-7-yl)pyridin-2-yl)oxy)butoxy)butyl)-2-azaspiro[3.3]heptan-6-yl)oxy)isoindoline-1,3-dione] was tested, and the “Degradation activity* (highest amount of degradation observed at any dosage; tau protein remaining)” value was “C (>80% tau protein remaining after 72 hours of incubation with the test compound)”.
In the case of `Cn1c2ccncc2c2ccc(-c3ccc(O[C@H]4C[C@H](Oc5ccc(C#CCOc6ccc7c(c6)C(=O)N(C6CCC(=O)NC6=O)C7=O)nc5)C4)nc3)cc21` (stereo partly shown) [Compound 117, 2-(2,6-dioxopiperidin-3-yl)-5-((3-(5-((1r,3r)-3-((5-(5-methyl-5H-pyrido[4,3-b]indol-7-yl)pyridin-2-yl)oxy)cyclobutoxy)pyridin-2-yl)prop-2-yn-1-yl)oxy)isoindoline-1,3-dione], the “Degradation activity* (highest amount of degradation observed at any dosage; tau protein remaining)” value is reported as “C (>80% tau protein remaining after 72 hours of incubation with the test compound)”.
In the case of `Cn1c2ccncc2c2ccc(-c3cnc(O[C@H]4C[C@H](Oc5ccc(C#CCOC6CN(c7ccc8c(c7)C(=O)N(C7CCC(=O)NC7=O)C8=O)C6)nc5)C4)c(C(F)(F)F)c3)cc21` (stereo partly shown) [Compound 118, 2-(2,6-dioxopiperidin-3-yl)-5-(3-((3-(5-((1r,3r)-3-((5-(5-methyl-5H-pyrido[4,3-b]indol-7-yl)-3-(trifluoromethyl)pyridin-2-yl)oxy)cyclobutoxy)pyridin-2-yl)prop-2-yn-1-yl)oxy)azetidin-1-yl)isoindoline-1,3-dione], the “Degradation activity* (highest amount of degradation observed at any dosage; tau protein remaining)” value is reported as “C (>80% tau protein remaining after 72 hours of incubation with the test compound)”.
`Cc1ncsc1-c1ccc([C@H](C)NC(=O)[C@@H]2C[C@@H](O)CN2C(=O)[C@@H](NC(=O)COCCOCCOCCOCCOc2ncc(-c3ccc4c(c3)[nH]c3ccncc34)cc2C(F)(F)F)C(C)(C)C)cc1` [Compound 119, (2S,4R)-1-((S)-17-((5-(5H-pyrido[4,3-b]indol-7-yl)-3-(trifluoromethyl)pyridin-2-yl)oxy)-2-(tert-butyl)-4-oxo-6,9,12,15-tetraoxa-3-azaheptadecanoyl)-4-hydroxy-N—((S)-1-(4-(4-methylthiazol-5-yl)phenyl)ethyl)pyrrolidine-2-carboxamide] was tested, and the “Degradation activity* (highest amount of degradation observed at any dosage; tau protein remaining)” value was “C (>80% tau protein remaining after 72 hours of incubation with the test compound)”.
In the case of `Cc1ncsc1-c1ccc([C@H](C)NC(=O)[C@@H]2C[C@@H](O)CN2C(=O)[C@@H](NC(=O)COCCOc2ccc(-c3ccc4c(c3)[nH]c3ccncc34)cn2)C(C)(C)C)cc1` [Compound 120, (2S,4R)-1-((S)-2-(2-(2-((5-(5H-pyrido[4,3-b]indol-7-yl)pyridin-2-yl)oxy)ethoxy)acetamido)-3,3-dimethylbutanoyl)-4-hydroxy-N—((S)-1-(4-(4-methylthiazol-5-yl)phenyl)ethyl)pyrrolidine-2-carboxamide], the “Degradation activity* (highest amount of degradation observed at any dosage; tau protein remaining)” value is reported as “C (>80% tau protein remaining after 72 hours of incubation with the test compound)”.
In the case of `Cc1ncsc1-c1ccc([C@H](C)NC(=O)[C@@H]2C[C@@H](O)CN2C(=O)[C@@H](NC(=O)COCCOCCOCCOCCOCCOc2ccc(-c3ccc4c(c3)[nH]c3ccncc34)cn2)C(C)(C)C)cc1` [Compound 121, (2S,4R)-1-((S)-20-((5-(5H-pyrido[4,3-b]indol-7-yl)pyridin-2-yl)oxy)-2-(tert-butyl)-4-oxo-6,9,12,15,18-pentaoxa-3-azaicosanoyl)-4-hydroxy-N—((S)-1-(4-(4-methylthiazol-5-yl)phenyl)ethyl)pyrrolidine-2-carboxamide], the “Degradation activity* (highest amount of degradation observed at any dosage; tau protein remaining)” value is reported as “B (≤80% and >50% tau protein remaining after 72 hours of incubation with the test compound)”.
`Cc1ncsc1-c1ccc([C@H](C)NC(=O)[C@@H]2C[C@@H](O)CN2C(=O)[C@@H](NC(=O)COCCOCCOCCOCCOCCOCCOc2ccc(-c3ccc4c(c3)[nH]c3ccncc34)cn2)C(C)(C)C)cc1` [Compound 122, (2S,4R)-1-((S)-23-((5-(5H-pyrido[4,3-b]indol-7-yl)pyridin-2-yl)oxy)-2-(tert-butyl)-4-oxo-6,9,12,15,18,21-hexaoxa-3-azatricosanoyl)-4-hydroxy-N—((S)-1-(4-(4-methylthiazol-5-yl)phenyl)ethyl)pyrrolidine-2-carboxamide] was tested, and the “Degradation activity* (highest amount of degradation observed at any dosage; tau protein remaining)” value was “C (>80% tau protein remaining after 72 hours of incubation with the test compound)”.
In the case of `Cn1c2ccncc2c2ccc(-c3cnc(O[C@H]4C[C@H](OC5CCN(CCCCCOc6ccc7c(c6)C(=O)N(C6CCC(=O)NC6=O)C7=O)CC5)C4)c(C(F)(F)F)c3)cc21` (stereo partly shown) [Compound 123, 2-(2,6-dioxopiperidin-3-yl)-5-((5-(4-((1r,3r)-3-((5-(5-methyl-5H-pyrido[4,3-b]indol-7-yl)-3-(trifluoromethyl)pyridin-2-yl)oxy)cyclobutoxy)piperidin-1-yl)pentyl)oxy)isoindoline-1,3-dione], the “Degradation activity* (highest amount of degradation observed at any dosage; tau protein remaining)” value is reported as “C (>80% tau protein remaining after 72 hours of incubation with the test compound)”.
For `Cn1c2ccncc2c2ccc(-c3ccc(O[C@H]4C[C@H](Oc5ccc(C#CCCCCOc6ccc7c(c6)C(=O)N(C6CCC(=O)NC6=O)C7=O)cc5)C4)nc3)cc21` (stereo partly shown) [Compound 124, 2-(2,6-dioxopiperidin-3-yl)-5-((6-(4-((1r,3r)-3-((5-(5-methyl-5H-pyrido[4,3-b]indol-7-yl)pyridin-2-yl)oxy)cyclobutoxy)phenyl)hex-5-yn-1-yl)oxy)isoindoline-1,3-dione], the “Degradation activity* (highest amount of degradation observed at any dosage; tau protein remaining)” value was “C (>80% tau protein remaining after 72 hours of incubation with the test compound)”.
`Cn1c2ccncc2c2ccc(-c3cnc(O[C@H]4C[C@H](OCCCOCCCOC5CN(c6ccc7c(c6)C(=O)N(C6CCC(=O)NC6=O)C7=O)C5)C4)c(C(F)(F)F)c3)cc21` (stereo partly shown) [Compound 125, 2-(2,6-dioxopiperidin-3-yl)-5-(3-(3-(3-((1r,3r)-3-((5-(5-methyl-5H-pyrido[4,3-b]indol-7-yl)-3-(trifluoromethyl)pyridin-2-yl)oxy)cyclobutoxy)propoxy)propoxy)azetidin-1-yl)isoindoline-1,3-dione] was tested, and the “Degradation activity* (highest amount of degradation observed at any dosage; tau protein remaining)” value was “C (>80% tau protein remaining after 72 hours of incubation with the test compound)”.
In the case of `Cn1c2ccncc2c2ccc(-c3ccc(O[C@H]4C[C@H](N(C)C5CC6(C5)CN(CCCCCOc5ccc7c(c5)C(=O)N(C5CCC(=O)NC5=O)C7=O)C6)C4)nc3)cc21` (stereo partly shown) [Compound 126, 2-(2,6-dioxopiperidin-3-yl)-5-((5-(6-(methyl((1r,3r)-3-((5-(5-methyl-5H-pyrido[4,3-b]indol-7-yl)pyridin-2-yl)oxy)cyclobutyl)amino)-2-azaspiro[3.3]heptan-2-yl)pentyl)oxy)isoindoline-1,3-dione], the “Degradation activity* (highest amount of degradation observed at any dosage; tau protein remaining)” value is reported as “B (≤80% and >50% tau protein remaining after 72 hours of incubation with the test compound)”.
In the case of `Cn1c2ccncc2c2ccc(-c3ccc(N4CCC(CN5CCN(c6ccc7c(c6)CN(C6CCC(=O)NC6=O)C7=O)CC5)CC4)nc3)cc21` (stereo not shown) [Compound 127, 3-(5-(4-((1-(5-(5-methyl-5H-pyrido[4,3-b]indol-7-yl)pyridin-2-yl)piperidin-4-yl)methyl)piperazin-1-yl)-1-oxoisoindolin-2-yl)piperidine-2,6-dione], the “Degradation activity* (highest amount of degradation observed at any dosage; tau protein remaining)” value is reported as “C (>80% tau protein remaining after 72 hours of incubation with the test compound)”.
In the case of `Cn1c2ccncc2c2ccc(-c3ccc(N4CCC(CCN5CCN(c6ccc7c(c6)CN(C6CCC(=O)NC6=O)C7=O)CC5)CC4)nc3)cc21` (stereo not shown) [Compound 128, 3-(5-(4-(2-(1-(5-(5-methyl-5H-pyrido[4,3-b]indol-7-yl)pyridin-2-yl)piperidin-4-yl)ethyl)piperazin-1-yl)-1-oxoisoindolin-2-yl)piperidine-2,6-dione], the “Degradation activity* (highest amount of degradation observed at any dosage; tau protein remaining)” value is reported as “C (>80% tau protein remaining after 72 hours of incubation with the test compound)”.
